Data from patent US6395745B1, “Alkaloid halide salts of swainsonine and methods of use” (priority 1997, dated 2002).

What was measured:
[1] = tested on: early erythroid progenitor cells (CFU-E); experiment: Murine bone marrow progenitor cell assay in methylcellulose, CFU-E; format: cell-based, C57BL/6 mice
Procedure: Pathogen-free C57BL/6 female mice, 8-9 weeks old, obtained from Jackson Laboratories were used. The room environment and photoperiod were controlled: 24° C.; humidity, 50±20%; 12 hr light and 12 hr dark. Mice were housed one per cage with ad libitum accesses to standard pelleted commercial laboratory diet and to sterile (autoclaved) tap water.
Swainsonine hydrochloride was manufactured by Seres Laboratories, Calif. FBS and methylcellulose (MethoCult M3330) were purchased from Stem Cell Technologies, Inc. (Vancouver. BC). Iscove's modified Dulbecco's medium was prepared using powdered media from Gibco BRL, deionized water and filter sterilization. For the handling of cells, the media was supplemented with 2% FBS and 50 μM β-mercaptoethanol (referred to as IMDM/FBS).
The healthy and GD0039 treated mice were euthanized by CO2 asphyxiation. Bone marrow (BM) cell suspensions were prepared under sterile conditions by flushing both femurs and tibiae with IMDM/FBS using a 26 gauge needle. Single cell suspensions were made up to 10.0 ml IMDM/FBS. The concentration of nucleated cells in each suspension was determined by triplicate counts on a hemocytometer. A portion of the cells was further diluted in media to the appropriate concentration before plating for the progenitor assay.
Colony-forming units (CFUs) were estimated by the methylcellulose method. One milliliter suspensions, containing 2×10^5 nucleated BM cells, in 0.1 ml of IMDM and 0.9 ml MethoCult (M3330), were plated in triplicate in 35 mm tissue culture dishes. […] The MethoCult M3330 contains 30% FBS and 10 μg/ml erythropoietin and is designed for the growth of early erythroid progenitor cells (CFU-E), which were scored after 3 days of incubation at 37° C. in a humidified atmosphere containing 5% CO2. […] Colonies containing more than 20 cells were scored using an inverted microscope with brightfield optics and 40× or 100× magnification.

[2] = tested on: SP1.A3a mouse mammary adenocarcinoma; experiment: SP1.A3a tumor growth in mice, oral administration in drinking water; format: in vivo, CBA/J mice
Procedure: The experiment was repeated using swainsonine hydrochloride administered in drinking water. SP1.A3a mouse mammary adenocarcinoma were maintained in exponential growth in RPMI 1640 medium containing 10% FBS. The cells were harvested and re-suspended at 3×10^5/ml in PBS and 0.1 ml containing 3×10^4 cells injected S.C. into the right flank of 7 week old female CBA/J mice (Jackson Laboratories) (n=25). The mice were subsequently supplied with drinking water alone (n=13) or drinking water containing 10 μg/ml swainsonine hydrochloride (n=12) (equivalent to a dose of 2 mg/kg/day).
Once a palpable tumor was evident, tumor size was measured twice a week using vernier callipers. At the end of the treatment period the tumors were excised and weighed.

[3] = Preformulation solubility in vehicles; format: physicochemical
Procedure: Preformulation studies of swainsonine hydrochloride, bulk drug substance, and in combination with powder and semisolid fill gelatin capsules were conducted with respect to the following: hygroscopicity, pH, stability, and solubility. […] At 20% and 50% RH it absorbed 1.9% and 2.1% of water by Karl Fischer after 48 hours of storage. The moisture uptake diminishes when anhydrous powder excipients (e.g. lactose anhydrous and mannitol powder) are used to formulate the pharmaceutical active into a hard capsule.
Therefore for soft gelatin capsule formulations hydrophilic vehicles are preferred. The use of a co-solvent such as glycerin or propylene glycol in PEGs may be feasible for liquid or semisolid fills.

[4] = Accelerated stability of stressed solid samples, percentage remaining by HPLC; format: physicochemical
Description: Samples of swainsonine free base synthesized using synthetic routes developed by Dr. David Dime (Toronto Research Chemicals, Toronto, Ontario) and Dr. William Pearson (University of Michigan, Ann Arbor, Mich.), were recrystallized to obtain either the hydrochloride salt, the hydrobromide salt or the free base of swainsonine. Samples were weighed and exposed to the conditions described below.
To model long-term stability or shelf life, various conditions were used to accelerate the decomposition process. Samples of crystalline prism swainsonine hydrochloride salt and swainsonine free base (a white, fluffy powder obtained from swainsonine hydrochloride were recrystallized from chloroform-methanol-diethyl ether) were weighed and exposed to conditions described below (stressed samples). Unstressed samples were prepared at 1 mg/ml concentration and chromatographed in sextuplicate on each run. After the indicated time interval each stressed sample was diluted with mobile phase at the same concentration as the unstressed sample. The percentage remaining swainsonine hydrochloride or swainsonine free base was calculated based on the percentage of either the hydrochloride or the free base in the unstressed sample.
The conditions included (a) UV light for 7 days; (b) 105° C. with atmospheric oxygen for seven days (*=average of two samples); (c) 105° C. under nitrogen for seven days (*=average of two samples); (d) 70° C. with low humidity for seven days; and (e) 40° C. with 75% relative humidity for seven days. Other tests include (f) UV for 24 hours; (g) 100° C. aqueous solution for two hours; (h) aqueous acidic treatment for 24 hours; (i) aqueous alkali treatment for 4 hours; and (j) (aqueous) 3% hydrogen peroxide for 4 hours. […] The physical properties of swainsonine hydrochloride compared to the free base and swainsonine hydrobromide, and swainsonine hydrofluoride are shown in Table 5.

Cl.O[C@H]1[C@H]2[C@H](O)CCCN2C[C@@H]1O [swainsonine hydrochloride, (−)-(1S,2S,8R,8aR)-1,2,8-trihydroxyoctahydro-indolizidine hydrochloride salt]
increase in the number of early CFU-E ([1]; 0.03 μg/ml to 10 μg/ml in vitro): ~3 fold
number of early CFU-E, counted on day 3 ([1]; added to methylcellulose in vitro): significantly increased
mean CFU-E of triplicate counts ± SD from 2 × 10^5 nucleated BM cells ([1]; mouse 1 (control), 0.3 μg/ml in vitro, in vitro control 54 ± 12): 75 ± 16
mean CFU-E of triplicate counts ± SD from 2 × 10^5 nucleated BM cells ([1]; mouse 1 (control), 3 μg/ml in vitro, in vitro control 54 ± 12): 87 ± 16
mean CFU-E of triplicate counts ± SD from 2 × 10^5 nucleated BM cells ([1]; mouse 2 (GD0039 treated in vivo, 20 μg/day for four days), 0.3 μg/ml in vitro): 97 ± 4
mean CFU-E of triplicate counts ± SD from 2 × 10^5 nucleated BM cells ([1]; mouse 2 (GD0039 treated in vivo, 20 μg/day for four days), 3 μg/ml in vitro): 127 ± 18
mean CFU-E of triplicate counts ± SD from 2 × 10^5 nucleated BM cells ([1]; mouse 2 (GD0039 treated in vivo, 20 μg/day for four days), no treatment in vitro): 22 ± 5
tumor growth versus control mice ([2]; 10 μg/ml in drinking water (2 mg/kg/day), FIG. 9): slower growing tumors
mean tumor weight ([2]; 10 μg/ml in drinking water, at 31 days, untreated 3.33 g): 1.79 g
solubility in aqueous and hydrophilic vehicles [3]: highly soluble
percentage remaining, condition (e) ([4]; 40° C. with 75% relative humidity for seven days): 101.9%
percentage remaining, condition (d) ([4]; 70° C. with low humidity for seven days): 103.2%
percentage remaining, condition (c) ([4]; 105° C. under nitrogen for seven days (*=average of two samples)): 101.2%
percentage remaining, condition (b) ([4]; 105° C. with atmospheric oxygen for seven days (*=average of two samples)): 100.9%
percentage remaining, condition (a) ([4]; UV light for 7 days): 99.4%
